For data set [1], the system named is FH-B cells. Kind of data set: Microtubule sedimentation assay. It is filed as cell-based, human. The method, then:
Cell lysate preparation: For microtubule sedimentation assays, cells were treated as indicated in the figure legends, washed with PBS and incubated in 250 μl of microtubule sedimentation assay lysis buffer (100 mM PIPES pH 6.8, 2 M glycerol, 2 mM EGTA, 5 mM MgCl2, 0.1% Triton X-100) supplemented with 1 μM taxol, protease inhibitor cocktail (1:200, Abcam, ab201111) and phosphatase inhibitor cocktail (1:100, Abcam, ab201115) for 20 minutes at 37° C. Two hundred μl of scraped lysate was centrifuged at 21,000×g for 10 minutes at room temperature. Supernatants were saved as soluble fractions. Pellets were resuspended in 200 μl RIPA buffer (50 mM Tris HCl pH 8.0, 150 mM NaCl, 1% IGEPAL CA630, 0.05% deoxycholic acid) supplemented with 1.05% SDS, protease inhibitor cocktail (1:200) and phosphatase inhibitor cocktail (1:100) and incubated at 100° C. for 15 minutes. Pellet suspensions were centrifuged as before and supernatants were saved as pellet fractions.
Gel electrophoresis and immunoblotting: Microtubule sedimentation fractions and MLC2 analysis samples were separated by electrophoresis through tris-glycine and tricine polyacrylamide gels, respectively, which were transferred to PVDF membranes. Membranes with microtubule sedimentation fractions and MLC2 analysis samples were blocked in 5% milk in TBST and in 5% BSA in TBST, respectively. After overnight incubation with primary antibody at 4° C., the membranes were washed and incubated with secondary antibody for 1 hour at room temperature. Primary antibodies included anti-α-tubulin (1:2,000, Thermo Fisher Scientific, PA529444), anti-acetylated tubulin (1:1,000, Sigma-Aldrich, T7451), anti-phospho MYL9 (1:200, Thermo Fisher Scientific, PA517727), and anti-β-actin (1:5,000, Sigma-Aldrich, A1978). Secondary antibodies included Goat anti-Rabbit HRP (Thermo Fisher Scientific, 31460; 1:10,000 for anti-α-tubulin; 1:5,000 for anti-phospho MYL9), and Goat anti-Mouse HRP (Thermo Fisher Scientific, 62-6520; 1:5,000 for anti-acetylated tubulin; 1:10,000-1:20,000 for anti-β-actin). Membranes were placed into Pierce™ ECL Western Blotting Substrate (Thermo Fisher Scientific, 32106). Autoradiography film was exposed to each membrane for various times to ensure acquisition of non-saturated exposures. Band intensities were quantified from scanned films by densitometry using ImageJ.

Data set [2] concerns FH-B cells. Kind of data set: Analysis of microtubule features by immunofluorescence. It is filed as cell-based, human. On the procedure:
(§1) Analysis of microtubule features by immunofluorescence: Because Y-27632 diminishes FQI1-induced cell compaction (FIGS. 10C and 10D) without affecting microtubule levels (FIGS. 9A and 9B), cells were pretreated with Y-27632 in order to maintain overall cellular shape, facilitating capture of structural or positional impact of FQI1 on microtubules. In addition, only cells with cell spreading areas larger than 1000 μm^2 were considered. Cells were seeded overnight in high n-dishes, treated as indicated in the figure legends, fixed with formaldehyde as described above, blocked in 5% BSA in PBS and stained overnight at 4° C. with anti-γ-tubulin (1:500, Abcam, ab11316) and anti-α-tubulin (1:500, Fisher Scientific, 62204). Samples were then incubated in goat anti-rabbit Cy5 (1:1000, Invitrogen, A10523), goat anti-mouse Alexa Fluor 546 (1:1000, Thermo Fisher Scientific, A11003), and Phalloidin-iFluor 488 Reagent. Hoechst 33342 and mounting medium were applied, before acquiring Z stack images at 60× magnification on an Olympus Fluoview 10i microscope.
(§2) Using ImageJ, binary Z projections of Phalloidin and Hoechst channel stacks were merged with Z projections with average intensity of the α-tubulin channels. The Phalloidin channel was used as the region of interest for measurement of “integrated density” of the total α-tubulin intensity, which was plotted into swarmplots.
(§3) To assess distribution of visible microtubule ends, the Hoechst, γ-tubulin, and α-tubulin stacks were converted into Z projections with maximum intensity. The Hoechst and γ-tubulin Z projections were thresholded and all channels were merged. A line was generated between the γ-tubulin signal and the center of the nucleus to identify the axis of cell movement; a line perpendicular to the first line and running through the center point of the nucleus divided the cell into posterior and anterior portions. Visible microtubule ends were counted using the Cell Counter plugin, excluding unattached microtubule fragments.

In data set [3] the test system is RPE cells. Described as above. It is filed as cell-based. On the procedure: as §1, §2, §3
Data set [4] deals with RPE cells. Kind of data set: Cell motility tracking. The note with it: thymidine block, 4 μM FQI1; not statistically significant. It is filed as cell-based. On the procedure: Cell motility tracking: After overnight seeding in high μ-dishes, cells were synchronized by incubating in 2 mM thymidine for 18-20 hours. Thereafter, cells were treated with 4 μM FQI1 or vehicle (0.01% DMSO) for 1 hour, followed by a 10-min incubation in NucSpot® Live 650 dye (Biotium, 40082) following the manufacturer's instructions. Subsequently, cells were imaged every 2 minutes for 2 hours in an environmental chamber of a Nikon C2 Si microscope at 37° C. and 5% CO2 at 20× magnification. Cells that underwent mitosis during the 2-hour period were excluded from the analysis. Using ImageJ, individual nuclei were monitored using the Manual Tracking tool and the distances between starting and end points were integrated into swarmplots using Python's seaborn library.

In data set [5] the test system is FH-B cells. Description: Cell cycle analysis by flow cytometry. It is filed as cell-based, human. The note with it: asynchronous FH-B cells, 4 μM FQI1, 1 hour. On the procedure: Cell cycle analysis by flow cytometry: After trypsinization, subsequent steps prior to staining were performed at 4° C. Cells in PBS were transferred dropwise into ethanol (final concentration of 70%) for overnight incubation. Fixed cells were washed with PBS and then incubated in 50 μg/ml propidium iodide and 10 μg/ml RNase A in PBS for 45 minutes at room temperature. After passage through a cell strainer, cell fluorescence was measured using a Becton Dickinson FACSCalibur. Ten thousand events were counted per sample. Histogram plots were generated using FlowJo.
A general note: Flow cytometry measures light scatter and fluorescence of single cells or particles in a stream.

Data set [6] can be described thus: Plasma protein binding (PPB), human. It is filed as in vitro ADME.
Data set [7] in a line: Plasma protein binding (PPB), mouse. It is filed as in vitro ADME.
The test system of another data set is colorectal cancer tumor. Description: Colorectal cancer tumor size and tumor tissue, FIGS. 22-24. It is filed as in vivo, mouse. The following applies: 15 mg/kg treatment compared with the other concentration.

Usually fraction unbound stands for the share of the substance not bound to proteins or other matrix.

Regarding `CCOc1ccccc1C1CC(=O)Nc2cc3c(cc21)OCO3` (stereo not shown) [FQI1, 8-(2-ethoxyphenyl)-7,8-dihydro-[1,3]dioxolo[4,5-g]quinolin-6(5H)-one], the “time after addition at which a drop in pelleted tubulin is observed” value in the data set on FH-B cells [1] (4 μM FQI1) was determined as 1 min. For the same compound, the “microtubule stability and α-tubulin acetylation in the microtubule fraction” value in the data set with FH-B cells [1] (4 μM FQI1 (15- and 30-minute pellets), 1 μM nocodazole or taxol 30 minutes) is “increase in the amount of acetylated α-tubulin in the microtubule fraction”. Also, the “anterior-posterior patterning of visible microtubule ends” value in the data set on FH-B cells [2] (4 μM FQI1) is “largely unaffected”. Moreover, the “overall α-tubulin intensity” value is “significant decrease in overall α-tubulin intensity” in the data set on FH-B cells [2] (4 μM FQI1, 30 minutes, Y-27632 pretreated) and “significant decrease in overall α-tubulin intensity” in the data set with RPE cells [3] (4 μM FQI1, 10 minutes, Y-27632 pretreated). In addition, the “increase in the number of individually discernible microtubule ends” value in the data set on FH-B cells [2] (4 μM FQI1, 30 minutes, vs vehicle) came to 2.7 fold; with RPE cells [3] (4 μM FQI1, 10 minutes, vs vehicle), 2.5 fold. In addition, the “front-rear pattern of visible microtubule ends” value in the data set on RPE cells [3] (4 μM FQI1) is on record as “shifted to a more anterior distribution”. Besides, the “cell displacement over a 2-hour period” value in the data set on RPE cells [4] was “clear trend towards motility being reduced”. The “cell cycle phases by cellular DNA profiling” value with FH-B cells [5] is reported as “no apparent shift in cell cycle phases”.

In the case of `CCOc1cc(N(C)C)ccc1-c1cc(=O)[nH]c2cc3c(cc12)OCO3` [FQI2-34, 8-(4-(dimethylamino)-2-ethoxyphenyl)-[1,3]dioxolo[4,5-g]quinolin-6(5H)-one], the fraction unbound in data set [6] is 0.1; in data set [7] it was 0.07. For the same compound, in the data set with colorectal cancer tumor, the “effectiveness on colorectal cancer tumor size versus time” value is “not as effective”.

The record behind these values is patent US11458132B2, “Quinolin-2(1H)-one inhibitors of Late SV40 Factor” (TRUSTEES OF BOSTON UNIVERSITY, priority 2020, dated 2022).
